This is an account of results in ChEMBL document CHEMBL1201862, “PubChem BioAssay data set” (2004).

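Dose response: 5 concentrations. Exposure: 48 h. Format: 96-well plates. Endpoint: linear interpolation; highest concentration if not reached. At the GI50, growth is halved.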 The source made the active and inactive calls. No stated cut-off is given here; in the data, active = GI50 up to about 1.1 µM and inactive = higher.

Common to all, as to assay: DTP human tumour cell line panel, 48 h
In experiment [1] the test system is NCI-H522.
Experiment [2] concerns SK-MEL-2.
Experiment [3] deals with LOX IMVI.
Experiment [4] relates to HT-29.
The subject of experiment [5] is SNB-19.
Experiment [6] concerns CCRF-CEM.
Experiment [7] relates to TK-10.
In experiment [8] the test system is UACC-62.
Experiment [9] deals with MOLT-4.
Experiment [10] relates to OVCAR-3.
For experiment [11], the system named is HCT-15.
Experiment [12] relates to UO-31.
For experiment [13], the system named is NCI-H460.
Experiment [14] concerns SF-539.
Experiment [15] deals with NCI-H23.
Experiment [16] has as its system SF-295.
Experiment [17] concerns SK-MEL-28.
Experiment [18] relates to SR.
For experiment [19], the system named is SK-OV-3.
In experiment [20] the test system is CAKI-1.

Turning to `Nc1nc(O)c2[nH]cnc2[n+]1[O-]`, the GI50 in [1], in experiment [2], in experiment [3], in [4], in [5] and in [6] was > 100 µM (inactive) throughout. The GI50 is 53.3 µM (inactive) in experiment [7]; > 100 µM (inactive) in experiment [8]; > 100 µM (inactive) in experiment [9]; > 100 µM (inactive) in experiment [10]; above 100 µM in experiment [11]; > 100 µM (inactive) in [12]. In addition, the GI50 in [13] is > 100 µM (inactive); in experiment [14] it was > 100 µM (inactive); in experiment [15], > 100 µM (inactive); in experiment [16], > 100 µM (inactive); in experiment [17], > 100 µM (inactive); in [18] it was 75.3 µM (inactive). Besides, the GI50 in experiment [19] was > 100 µM (inactive).

In the case of `O=C(O)CSCCc1ccccc1`, the GI50 in experiment [1], in experiment [2], in experiment [3], in experiment [4], in [5] and in experiment [7] was > 100 µM (inactive) throughout. The GI50 in experiment [8] was > 100 µM (inactive); in experiment [9], > 100 µM (inactive); in experiment [10] it was > 100 µM (inactive); in experiment [11], above 100 µM; in experiment [12] it was > 100 µM (inactive); in experiment [13], > 100 µM (inactive). Further, the GI50 in [14], in experiment [15], in experiment [16], in experiment [17], in experiment [18] and in experiment [20] was > 100 µM (inactive) in each case. In [19], the GI50 was > 100 µM (inactive).

`CC(CCCOC(c1ccccc1)(c1ccccc1)c1ccccc1)OC(=O)Nc1ccccc1` (stereo unspecified): the GI50 is 11.7 µM (inactive) in [1]; 12.7 µM (inactive) in experiment [3]; 13.1 µM (inactive) in experiment [4]; 14.6 µM (inactive) in [6]; 20.4 µM (inactive) in experiment [7]; 12.8 µM (inactive) in experiment [8]. The GI50 was 4.55 µM (inactive) in experiment [9]; 14 µM (inactive) in experiment [10]; 14.4 µM in experiment [11]; 11.6 µM (inactive) in [12]; 11.7 µM (inactive) in experiment [13]; 17.8 µM (inactive) in experiment [14]. Moreover, the GI50 in experiment [15] is 9.84 µM (inactive); in [16] it was 12.7 µM (inactive); in experiment [17], 15.3 µM (inactive); in experiment [18], 18.6 µM (inactive); in experiment [20], 13.5 µM (inactive); in experiment [19], 14.2 µM (inactive).

As to `c1ccc2sc(C3(N4CCCCC4)CCCC3)cc2c1`, the GI50 was 11.4 µM (inactive) in experiment [1]; 17.9 µM (inactive) in experiment [3]; 3.24 µM (inactive) in [4]; 13.8 µM (inactive) in experiment [5]; 3.5 µM (inactive) in experiment [6]; 13.6 µM (inactive) in experiment [7]. For the same compound, the GI50 in [8] is 15.5 µM (inactive); in experiment [9], 3.52 µM (inactive); in experiment [10], 8.69 µM (inactive); in [11] it was 5.92 µM; in experiment [12] it was 16.9 µM (inactive); in experiment [13] it was 5.93 µM (inactive). Also, the GI50 in experiment [14] is 16.1 µM (inactive); in experiment [15], 4.06 µM (inactive); in experiment [16], 11 µM (inactive); in [17], 14.6 µM (inactive); in experiment [18], 0.838 µM (active); in [20] it was 18.1 µM (inactive). The GI50 in experiment [19] was 15.9 µM (inactive).

On to `O=C(/C(=C/c1ccc(Cl)cc1)c1ccccc1)c1ccccc1`, for which the GI50 is 14.2 µM (inactive) in experiment [1]; 20.4 µM (inactive) in [2]; 15.4 µM (inactive) in [3]; 18 µM (inactive) in experiment [4]; 32.4 µM (inactive) in experiment [6]; 25.4 µM (inactive) in [7]. Further, the GI50 in experiment [8] is 15.6 µM (inactive); in experiment [9], 17.8 µM (inactive); in [11], 15.4 µM; in [12], 27 µM (inactive); in experiment [13] it was 17.7 µM (inactive); in [14] it was 17.4 µM (inactive). For the same compound, the GI50 in experiment [15] is 17.5 µM (inactive); in experiment [16], 18.8 µM (inactive); in experiment [17], 16.9 µM (inactive); in experiment [18], 19.9 µM (inactive); in [19] it was 23.9 µM (inactive).

Turning to `O=C(O/N=c1/ccc(=O)/c(=N\OC(=O)c2ccccc2)c1=O)c1ccccc1`, the GI50 in [1] is > 100 µM (inactive); in experiment [3] it was > 100 µM (inactive); in [4], > 100 µM (inactive); in [5] it was 76.2 µM (inactive); in experiment [6], 33 µM (inactive); in [7], > 100 µM (inactive). Also, the GI50 in [9] is 40.2 µM (inactive); in experiment [10] it was > 100 µM (inactive); in experiment [11] it was above 100 µM; in experiment [12], > 100 µM (inactive); in experiment [13] it was > 100 µM (inactive); in experiment [14] it was > 100 µM (inactive). Besides, the GI50 in experiment [15], in [16], in experiment [17], in experiment [18], in [20] and in experiment [19] was > 100 µM (inactive) in each case.

For the compound `COc1ccc(/C(C#N)=C(/N)SCc2ccccc2Cl)cc1`, the GI50 in [1] is 14 µM (inactive); in experiment [2] it was 16.5 µM (inactive); in [3] it was 15.2 µM (inactive); in experiment [4], 17.5 µM (inactive); in [5], > 10 µM (inactive); in experiment [6] it was 27.9 µM (inactive). The GI50 is 32.1 µM (inactive) in experiment [7]; 11.9 µM (inactive) in experiment [8]; 19.1 µM (inactive) in [9]; 11.1 µM (inactive) in [10]; > 10 µM (inactive) in experiment [12]; 17.4 µM (inactive) in experiment [14]. Also, the GI50 in experiment [15] was 16.8 µM (inactive); in [16] it was 17.1 µM (inactive); in experiment [17], 17.9 µM (inactive); in [18], 25.2 µM (inactive); in experiment [19], 27.8 µM (inactive).

Turning to `C[C@@H]1C[C@@H]([C@H](O)CC2CC(=O)NC(=O)C2)C(=O)[C@@H](C)C1` [CYCLOHEXIMIDE], the GI50 was 0.0395 µM (active) in experiment [1]; 0.106 µM (active) in [2]; 0.0374 µM (active) in [3]; 0.0718 µM (active) in experiment [4]; 0.0984 µM (active) in [5]; < 0.0186 µM (active) in experiment [6]. Further, the concentration for 50% growth inhibition (GI50) was 0.0865 µM (active) in experiment [7]; 0.118 µM (active) in experiment [8]; < 0.0176 µM (active) in experiment [9]; 0.131 µM (active) in experiment [10]; 0.0433 µM in experiment [11]; 0.0287 µM (active) in experiment [12]. In addition, the concentration for 50% growth inhibition (GI50) in experiment [13] is 0.122 µM (active); in experiment [14], 0.0431 µM (active); in experiment [15] it was 0.0516 µM (active); in [16] it was 0.142 µM (active); in experiment [17] it was 0.0352 µM (active); in experiment [18] it was 0.0416 µM (active). Besides, in experiment [19], the concentration for 50% growth inhibition (GI50) was 0.127 µM (active).
